# What was measured:
# albino rat = test: Experiment 7: hemolysis after intravenous injection; format: in vivo; conditions: for Af (absorbance of released hemoglobin at 540 nm) / Hemolysis: i.v. over one minute, arterial blood
# Description: To determine the hemolysis of the formulation of Example 6, albino rat was incised with scissor at the upper part of left femoral region, at which each of vein and artery was cannulated, and then 10 mg/kg of the formulated drug was intravenously injected over one minute. After 0, 5, 10, 15, 30, 45 and 60 minutes, blood was collected from femoral artery in an amount of 100 μl each time. Blood was obtained after heparin-physiological saline and some blood filled in the catheter were removed few, seconds before collecting blood each time. After blood was collected, a small amount of heparin-physiological saline was introduced into the catheter connecting tube to prevent blood coagulation. 100 μl of the collected blood were mixed with 500 μl of physiological saline and then centrifuged with 3000 rpm for 10 minutes. 100 μl of the supernatant were transferred into microplate and the absorbance of released hemoglobin was measured at 540 nm. Hemolysis (%) was calculated according to the following equation. The control group used 70% propylene glycol (PG) solution.
# In the above equation, A100 is the absorbance at the time of 100% hemolysis (100 μl of blood was mixed with 500 μl of water); A0 is the absorbance at the time of 0% hemolysis as the blank (Before injection of the drug, normal blood was mixed with 500 μl of physiological saline for the blank test), and Af is the absorbance of each specimen.
# [1] = background statement; cited from earlier work
smiles,measurement,setting,value
"CC(O)CO (stereo not drawn) [70% PG, propylene glycol]",Af (absorbance of released hemoglobin at 540 nm),albino rat; 5 min.,0.086
same,Hemolysis,albino rat; 5 min.,1.94%
same,Af (absorbance of released hemoglobin at 540 nm),albino rat; 10 min.,0.091
same,Hemolysis,albino rat; 10 min.,2.06%
same,Af (absorbance of released hemoglobin at 540 nm),albino rat; 15 min.,0.067
same,Hemolysis,albino rat; 15 min.,1.47%
same,Af (absorbance of released hemoglobin at 540 nm),albino rat; 30 min.,0.038
same,Hemolysis,albino rat; 30 min.,0.76%
same,Af (absorbance of released hemoglobin at 540 nm),albino rat; 45 min.,0.047
same,Hemolysis,albino rat; 45 min.,0.98%
same,Af (absorbance of released hemoglobin at 540 nm),albino rat; 60 min.,0.041
same,Hemolysis,albino rat; 60 min.,0.84%
same,Af (absorbance of released hemoglobin at 540 nm),albino rat; initial,0.081
same,Hemolysis,albino rat; initial,1.82%
same,absorbance relative to the formulation of Example 6,"albino rat; i.v., 0-60 min",80-90 times
same,hemolysis (in words),"albino rat; i.v., 0-60 min",causes hemolysis
"CC(C)c1cccc(C(C)C)c1O [propofol, 2,6-diisopropylphenol]",octanol water partition coefficient,[1],4.33
same,pKa,[1],10.4
